Test results: patent US20120214862A1, “MODULATION OF FACTOR 7 EXPRESSION” (ISIS Pharmaceuticals, Inc., priority 2009, published 2012)
In the oligonucleotide strings, read from the 5' end, every base follows the letter of its sugar. An asterisk marks phosphorothioate; unmarked linkages are phosphodiester. Other units and linkages are bracketed, terminal groups are in braces. A string of capitals states the bases alone. e = 2'-O-(2-methoxyethyl) (MOE); [5mC] = 5-methylcytosine; d = 2'-deoxy (DNA)

Tested on: human Factor 7 mRNA
Assay: Inhibition of human Factor 7 mRNA by 2-10-2 MOE shortmers in HepB3 cells, electroporation, 1,000 nM
Assay type: cell-based
Details: electroporation, 1,000 nM oligonucleotide, approximately 24 hours, relative to untreated control cells
Procedure, shortened: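 14-mer 2-10-2 2′-MOE gapmers, full phosphorothioate, 5-methylcytidines, electroporated at 1,000 nM into HepB3 cells (20,000/well). After ~24 h, mRNA quantified by real-time RT-PCR, normalized to RIBOGREEN total RNA; percent inhibition relative to untreated cells.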

Row | Substance | % inhibition of human Factor 7 mRNA
1 | 435846 (antisense eT*eG*dG*dA*dG*dA*dG*dA*d[5mC]*d[5mC]*dA*dA*eT*eG) [compound 435846] | 7%
2 | 435847 (antisense eT*eG*dG*dT*dG*dT*dG*d[5mC]*dA*d[5mC]*dA*d[5mC]*eA*eT) [compound 435847] | 36%
3 | 435848 (antisense eT*eG*dG*d[5mC]*d[5mC]*dA*d[5mC]*dT*dG*d[5mC]*d[5mC]*dT*e[5mC]*eA) [compound 435848] | 32%
4 | 435849 (antisense eT*eG*d[5mC]*d[5mC]*dG*dT*dA*dG*dT*dG*dG*d[5mC]*e[5mC]*eG) [compound 435849] | 31%
5 | 435850 (antisense e[5mC]*eT*dT*dG*dG*d[5mC]*d[5mC]*dA*dG*dT*dG*dT*eG*eG) [compound 435850] | 15%
6 | 435851 (antisense eA*e[5mC]*dA*dG*dG*d[5mC]*d[5mC]*dA*dG*dG*d[5mC]*dT*eG*eG) [compound 435851] | 0%
